Laboratory results: patent publication EP4640234A1, “PHARMACEUTICAL COMPOSITION FOR PREVENTING OR TREATING GRAFT-VERSUS-HOST DISEASE CONTAINING GLP-2 DERIVATIVE OR LONG-ACTING CONJUGATE THEREOF” (Hanmi Pharm. Co., Ltd., priority 2022, dated 2024)

Test system: SR-GVHD model induced by allogeneic transplantation
Assay: SR-GVHD mouse allogeneic transplantation model, switching from steroid to conjugate (Example 4)
Type: in vivo, BALB/C mice (recipients)
Settings: Group 2: Apraglutide 469 µg/kg once every other day, subcutaneously, from 3 days after splenocyte injection; excipient group 21.4%; FIG. 4
Experimental: In order to construct a mouse allogeneic transplantation model as a graft-versus-host disease (GVHD) model, female donor mice C57BL/6j were purchased from OrientBio (Korea), and female recipient mice BALB/C were purchased from DBL (Korea). The mice were raised in a sterile environment with a 12-h light/dark cycle. Food and water were provided ad libitum, and all procedures were performed under the approval of the Animal Experimentation Committee.
In order to mobilize hematopoietic stem cells (HSCs) into peripheral blood from 13-week-old C57BL/6j mice (donors), 10 µg of G-CSF (granulocyte-colony stimulating factor) (PeproTech, USA) was injected subcutaneously for 5 days, and then 1.5 × 10^7 splenocytes were collected. The 1.5 × 10^7 splenocytes (200 µL volume) were injected into BALB/C mice (recipients) through the tail vein. […]
The numerical value expressed as the dose of the GLP-2 derivative long-acting conjugate herein is based on the value acquired by excluding the mass of the polyethylene glycol linker moiety from the total mass of the GLP-2 derivative long-acting conjugate used, that is, the sum of the masses of only the polypeptide moieties.
The onset signs were evaluated using the same criteria as in Table 3, the survival rate was determined, and the small intestine and colon tissues were harvested and pathological changes were observed.

Apraglutide
survival rate on day 25: 35.7%
